The target of one experiment is T1, NRZ D79A (Danio rerio, UniProt Q8UWD5, D79A).
T1 sequence (Q8UWD5 1-148 D79A): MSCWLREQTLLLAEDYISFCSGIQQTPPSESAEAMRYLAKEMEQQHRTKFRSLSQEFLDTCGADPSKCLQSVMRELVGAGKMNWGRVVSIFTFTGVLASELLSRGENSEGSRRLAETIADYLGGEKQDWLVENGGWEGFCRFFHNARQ
Briefly: ITC affinity measurement of NRZ: BH3 motif interactions (mutant D79A). Format: binding, zebrafish (Danio rerio). Set-up: key to NRZ D79A KD: NB: no binding. The note with it: MicroCal iTC200, 25 °C, 25 mM HEPES pH 7.5, 150 mM NaCl, 2 mM BME, protein 30 μM, peptide 300 μM, 19 injections of 2.0 μl, means of three replicates with standard error. The method, then: (§1) NRZ mutants D79A and R86A were codon-optimized and synthesized (Genscript) and subsequently cloned into the pGEX-6P-3 vector (Invitrogen). Expression and purification were performed using the same protocol as for wild-type NRZ.
(§2) Binding affinities were measured by isothermal titration calorimetry (ITC) employing a MicroCal iTC200 system (GE Healthcare) at 25 °C using wt-NRZ, and NRZ mutants D79A and R86A in 25 mM HEPES, pH 7.5, 150 mM NaCl, 2 mM BME at a final concentration of 30 μM as previously described. BH3 motif peptide ligands were used at a concentration of 300 μM and titrated using 19 injections of 2.0 μl of ligand. All affinity measurements were performed in triplicate. Protein concentrations were measured using a Nanodrop UV spectrophotometer (Thermo Scientific, Scoresbury, Australia) at a wavelength of 280 nm. Peptide concentrations were calculated based on the dry peptide weight after synthesis. The zebrafish BH3-motif peptides used were commercially synthesized and were purified to a final purity of 95% (GenScript, Piscataway, New Jersey, US). zBim: […] (UniProt accession code B2KKY9, residues 117–142), zPuma: […] (accession code Q0GKC9, residues 123–148), zBik: […] (accession code Q5RGV6, residues 30–55), zBax: […] (accession code Q9I9N4, residues 52–79), zBid: […] (accession code Q0GKC5, residues 85–112), zBad: […] (accession code A7MCM4, 88–113 residues), zBmf: […] (accession code Q0GKC7, residues 89–114), zNoxa: […] (accession code Q0GKC8, residues 5–30), zBok: […] (accession code Q7T381, residues 60–85), zBeclin: […] (accession code F1RCP1, residues 102–127), zBcl-wav: […] (accession code D2Y5Q2, residues 42–67).

The next experiment concerns the target T2, NRZ R86A (Danio rerio, UniProt Q8UWD5, R86A).
T2 sequence (Q8UWD5 1-148 R86A): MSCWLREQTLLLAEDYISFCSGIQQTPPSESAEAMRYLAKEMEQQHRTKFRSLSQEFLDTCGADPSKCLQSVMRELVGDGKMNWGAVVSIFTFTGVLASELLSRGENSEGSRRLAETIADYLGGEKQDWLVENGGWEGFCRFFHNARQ
Briefly: ITC affinity measurement of NRZ: BH3 motif interactions (mutant R86A). Set-up: key to NRZ R86A KD: NB: no binding. The note with it: MicroCal iTC200, 25 °C, 25 mM HEPES pH 7.5, 150 mM NaCl, 2 mM BME, protein 30 μM, peptide 300 μM, 19 injections of 2.0 μl, means of three replicates with standard error. Format: binding, zebrafish (Danio rerio). The method, then:
as §1, §2

A further experiment concerns the target T3, wt-NRZ (Danio rerio, UniProt Q8UWD5).
T3 sequence (Q8UWD5 1-148): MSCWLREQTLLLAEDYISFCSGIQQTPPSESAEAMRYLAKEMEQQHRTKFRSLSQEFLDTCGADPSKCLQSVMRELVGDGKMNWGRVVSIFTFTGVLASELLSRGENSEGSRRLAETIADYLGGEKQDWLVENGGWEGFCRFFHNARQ
Put plainly: ITC affinity measurement of NRZ: BH3 motif interactions (wild type). The note with it: MicroCal iTC200, 25 °C, 25 mM HEPES pH 7.5, 150 mM NaCl, 2 mM BME, NRZ 30 μM, peptide 300 μM, 19 injections of 2.0 μl, means of three replicates with standard error. Format: binding, zebrafish (Danio rerio). As to the method: as §2

Experiment [1] concerns the target NRZ R86A (zebrafish (Danio rerio)) (UniProt Q8UWD5). Put plainly: ITC; MicroCal iTC200, 25 °C; NRZ (wt, D79A or R86A) at 30 μM in 25 mM HEPES pH 7.5, 150 mM NaCl, 2 mM BME; BH3 peptide at 300 μM titrated in 19 injections of 2.0 μl; triplicate. (In ITC the heat of successive injections is recorded.)
Experiment [2] concerns the target NRZ D79A (zebrafish (Danio rerio)) (UniProt Q8UWD5). The description is as above.
In experiment [3] the target is NRZ (zebrafish pro-survival Bcl-2 protein), lacking the 28 C-terminal residues (zebrafish (Danio rerio)). Described as above.

Residues, ends and D or L forms follow the SMILES beside them. No end group written: not given here.

As a reminder, the Kd is the free concentration of one partner at which half of the binding sites on the other are occupied at equilibrium, for simple one-to-one binding. Turning to EEQAVERVAVQLRTIGDEMNAVFLQR [Puma], the Kd on NRZ D79A was 117 ± 5 nM; at NRZ R86A it was 2770 ± 162 nM.
With `CC[C@H](C)[C@H](NC(=O)[C@H](CCC(N)=O)NC(=O)[C@H](CCC(N)=O)NC(=O)[C@H](CC(C)C)NC(=O)[C@H](CS)NC(=O)[C@H](CCC(N)=O)NC(=O)[C@H](C)NC(=O)[C@H](CC(C)C)NC(=O)[C@H](CCCNC(=N)N)NC(=O)[C@H](CCCCN)NC(=O)[C@H](Cc1c[nH]cn1)NC(=O)[C@H](CO)NC(=O)[C@@H]1CCCN1C(=O)[C@H](CC(=O)O)NC(=O)[C@H](CS)NC(=O)[C@H](CC(C)C)NC(=O)[C@@H](N)CCC(=O)O)C(=O)NCC(=O)N[C@@H](CC(=O)O)C(=O)N[C@@H](CCC(=O)O)C(=O)N[C@@H](CC(C)C)C(=O)N[C@@H](CC(=O)O)C(=O)NCC(=O)N[C@@H](CC(N)=O)C(=O)N[C@@H](C)C(=O)N[C@@H](CCC(N)=O)C(=O)N[C@@H](CC(C)C)C(=O)N[C@@H](CCC(N)=O)C(=O)O` [Bax] (H-ELCDPSHKRLAQCLQQIGDELDGNAQLQ-OH), the figures for the Kd at NRZ D79A and on NRZ R86A were 264 ± 42 nM and 4600 ± 440 nM, respectively.
With AQSVETLIGQKLQLIGDQFYQEHIMH [Bmf], the “NRZ D79A KD” value at NRZ D79A is reported as “NB”. At wt-NRZ, the “WT NRZ KD” value was “no detectable affinity and no affinity and NB”. The “NRZ R86A KD” value at NRZ R86A is reported as “NB”.
For LCPAPSRASAALRHAGDELLIRFPIF [Bcl-wav], the “NRZ D79A KD” value on NRZ D79A is recorded as “ablated”. The affinity at wt-NRZ, expressed as Kd, was 3570 ± 162 nM. Further, on NRZ R86A, the “NRZ R86A KD” value is listed as “ablated”.
In the case of NMRVTQTIGRQLAQIGDEMDNKWRQE [Bik], the Kd turned out to be 14 ± 3 nM at NRZ D79A and 17 ± 3 nM at NRZ R86A.
In the case of ALPPEMVVARELRRIGDEFNRLYCEA [Bim], the Kd on NRZ D79A is 13 ± 4 nM; on NRZ R86A it was 168 ± 8 nM.
Turning to EARAAREMAAELIRIADLLEQSVLSQAA [Bid], on NRZ D79A, the dissociation constant (Kd) amounted to 220 ± 16 nM.
DGGTMENLSRRLKVTSNLFDIMSGQT [Beclin]: on NRZ D79A, the “NRZ D79A KD” value was “NB”. Besides, the “WT NRZ KD” value at wt-NRZ is “no detectable affinity and NB”; at wt-NRZ (listed as Beclin-1), “does not bind”. Moreover, the “NRZ R86A KD” value at NRZ R86A is “NB”.
As for ALWAAKKYGQQLRRMSDEFDKGQMKR [Bad], the results for the Kd at NRZ D79A and on NRZ R86A were 3330 ± 41 nM and 4800 ± 88 nM, respectively.
Turning to EQTAVVECAQQLRNIGDLLNWKYKLL [Noxa], the Kd came to 335 ± 31 nM on NRZ D79A and 510 ± 41 nM on NRZ R86A.

B1: zBax BH3 motif peptide (peptide)
peptide: ELCDPSHKRLAQCLQQIGDELDGNAQLQ
For the molecule B1, the Kd in experiment [1] came to 4600 nM; in experiment [2] it was 264 nM.

B2: zPuma BH3 motif peptide (peptide)
peptide: EEQAVERVAVQLRTIGDEMNAVFLQR
Turning to B2, the Kd is 2770 nM in experiment [1] and 117 nM in experiment [2].

B3: zBid BH3 motif peptide (peptide)
peptide: EARAAREMAAELIRIADLLEQSVLSQAA
For the molecule B3, the results for the Kd in experiment [3] and in experiment [2] were 409 nM and 220 nM, respectively.

B4: zBcl-wav BH3 motif peptide (peptide)
peptide: LCPAPSRASAALRHAGDELLIRFPIF
As for B4, the Kd in experiment [3] is 3570 nM.

B5: zNoxa BH3 motif peptide (peptide)
peptide: EQTAVVECAQQLRNIGDLLNWKYKLL
For the molecule B5, the Kd in experiment [1] turned out to be 510 nM; in experiment [2], 335 nM.

B6: zBik BH3 motif peptide (peptide)
peptide: NMRVTQTIGRQLAQIGDEMDNKWRQE
For the molecule B6, the Kd in experiment [1] came out at 17 nM; in experiment [3], 12 nM; in experiment [2] it was 14 nM.

B7: zBim BH3 motif peptide (peptide)
peptide: ALPPEMVVARELRRIGDEFNRLYCEA
B7: the results for the Kd in experiment [1], in experiment [3] and in experiment [2] were 168 nM, 41 nM and 13 nM, respectively.

B8: zBad BH3 motif peptide (peptide)
peptide: ALWAAKKYGQQLRRMSDEFDKGQMKR
As for B8, the results for the Kd in experiment [1] and in experiment [2] were 4800 nM and 3330 nM, respectively.

These data come from PMC6148235, “A structural investigation of NRZ mediated apoptosis regulation in zebrafish” (Cell Death & Disease, 2018).
